# Test system: Human prostate cancer cell lines (PC-3 cells)
# Assay: Measurement of cell death-inducing activity (Test Example 1)
# Format: cell-based
# Settings: PC-3, 48 h, 48 hours after addition, tested at 10, 1, 0.1, 0.025 and 0.00625 μmol/L, qualitative evaluation of 10 fields, read-out: Concentration showing the cell death-inducing activity (cell death-inducing rate not less than 40%)
# Procedure: The cell death-inducing activity of the compound represented by the formula (1) or the salt thereof was measured as follows.
# Human prostate cancer cell lines (PC-3 cells) were seeded to 6-well plates at 1×10^5 cells/2 mL/well, and cultured in the presence of 5% CO2 at 37° C. for 48 hours. Thereafter, each compound was added thereto so as to provide 10, 1, 0.1, 0.025 and 0.00625 μmol/L. As a control, DMSO was added. After the addition, the cells were continuously cultured for 48 hours. […] When the cell death-inducing rate was not less than 40%, the compound was judged to have the cell death-inducing activity.
row,Compound,minimal effective concentration [µM]
1,CCn1nc(-c2ccccc2OC)cc1NC(=O)OCc1ccc2c(c1)ncn2C [Example 9-214],0.1
2,CCn1nc(-c2ccc(C)cc2C)cc1NC(=O)OCc1ccc2c(c1)ncn2CC [Example 9-236],0.1
3,Cn1cnc2cc(COC(=O)Nc3nnc(-c4ccc(Cl)cc4Cl)s3)ccc21 [Example 9-335],10
4,COc1cc(Cl)ccc1-c1nc(C)c(NC(=O)OCc2ccc3c(c2)nc2n3CCC(O)C2)s1 (stereo not drawn) [Example 9-343],0.1
5,Cc1cc(F)ccc1-c1nc(C)c(NC(=O)OCc2ccc3c(c2)nc(C)n3C)s1 [Example 9-80],0.1
6,"COc1cc(C)ccc1-c1nc(C)c(NC(=O)OCc2ccc3c(c2)nc2n3CCN(C)C2)s1 [Example 38-2, [2-(2-Methoxy-4-methylphenyl)-4-methylthiazol-5-yl]carbamic acid 2-methyl-1,2,3,4-tetrahydrobenzo[4,5]imidazo[1,2-a]pyrazin-8-ylmethyl ester]",10
7,CCn1cnc2cc(COC(=O)Nc3cc(-c4ccc(C)cc4C)nn3C)ccc21 [Example 9-235],0.00625
8,Cc1ccc(-c2nc(C)c(C(=O)N/N=C/c3cc(C)c(O)c(C)c3)s2)c(C)c1 [Example 23-122],0.1
9,CCc1ccccc1-c1nc(C)c(NC(=O)OCc2ccc3c(c2)nc2n3CCOC2)s1 [Example 9-90],0.1
10,Cc1ccc(-c2nc(C)c(COC(=O)Nc3ccc4c(c3)nc3n4CCC3)s2)c(C)c1 [Example 13-28],0.025
11,COc1ccc(CN(C)NC(=O)c2sc(-c3ccc(C)cc3C)nc2C)cc1 [Example 16-11],0.1
12,COc1ccccc1-c1cc(COC(=O)Nc2ccc3c(c2)nc2n3CCCC2)sn1 [Example 47-5],0.1
13,COc1ccc(/C=N/NC(=O)c2sc(-c3ccccc3C(F)(F)F)nc2C)cc1O [Example 23-13],1
14,COc1ccc(-c2nc(C)c(NC(=O)OCc3ccc4ncsc4c3)s2)c(OC)c1 [Example 36-3],10
15,COc1ccc(/C=N/NC(=O)c2cc(-c3ccccc3C)n[nH]2)cc1O [Example 22-3],1
16,CCn1cnc2cc(COC(=O)Nc3sc(-c4ncccc4C)nc3C)ccc21 [Example 9-196],10
17,CCN(Cc1ccc(OC)cc1)NC(=O)c1sc(-c2ccc(Cl)cc2OC)nc1C [Example 16-13],0.1
18,CCn1nc(-c2ccc(C)cc2C)cc1NC(=O)OCc1ccc2c(c1)nc(C)n2C [Example 9-240],1
19,CCn1ncc2cc(COC(=O)Nc3csnc3-c3ccc(Cl)cc3OC)ccc21 [Example 45-7],0.1
20,CCn1nc(-c2ccc(F)cc2OC)cc1NC(=O)OCc1ccc2c(c1)ncn2CC [Example 9-220],0.1
21,"Cc1ccc(-c2nc(C)c(COC(=O)Nc3ccc4ncsc4c3)s2)c(C)c1 [Example 41-1, Benzothiazol-6-ylcarbamic acid 2-(2,4-dimethylphenyl)-4-methylthiazol-5-ylmethyl ester]",10
22,"COc1ccccc1-c1cc(C(=O)N/N=C/c2ccc3c(c2)ncn3C)sn1 [Example 49-2, 3-(2-Methoxyphenyl)isothiazole-5-carboxylic acid[1-(1-methyl-1H-benzimidazol-5-yl)methylidene]hydrazide]",0.025
23,Cc1nc(-c2ccc(Cl)cc2)sc1C(=O)N/N=C/c1ccc(O)c2ccccc12 [Example 23-110],1
24,CCn1cnc2cc(NC(=O)OCc3sc(-c4ccccc4C)nc3C)ccc21 [Example 13-12],0.1

row,Compound,minimal effective concentration [µM]
1,COc1cc(Cl)ccc1-c1cc(NC(=O)OCc2ccc3nn(C)cc3c2)n(C)n1 [Example 9-291],0.025
2,Cc1ccc(-c2cc(NC(=O)OCc3ccc4c(c3)nc3n4CCCC3)n(C)n2)c(C)c1 [Example 9-271],0.1
3,Cc1cc(Cl)ccc1-c1nc(C)c(NC(=O)OCc2ccc3c(c2)nnn3C)s1 [Example 9-20],0.025
4,COc1ccc(-c2cc(NC(=O)OCc3ccc4c(c3)ncn4C)n(C)n2)cc1OC [Example 9-231],1
5,CCn1cc2cc(NC(=O)OCc3cc(-c4ccc(Cl)cc4OC)nn3C)ccc2n1 [Example 13-133],0.00625
6,COc1ccc(-c2nc(C)c(NC(=O)OCc3ccc4c(c3)ncn4C(C)C)s2)c(OC)c1 [Example 9-72],1
7,CCn1nc(-c2ccccc2OC)cc1NC(=O)OCc1ccc2c(c1)nc1n2CCOC1 [Example 9-244],1
8,CCn1cnc2cc(COC(=O)Nc3sc(-c4ccc(Cl)cc4C)nc3C)ccc21 [Example 9-64],0.00625
9,COc1cc(Cl)ccc1-c1cc(COC(=O)Nc2ccc3c(c2)ncn3C)n(C)n1 [Example 13-84],0.00625
10,CCc1nc(-c2ccc(Cl)cc2OC)sc1NC(=O)OCc1ccc2c(c1)ncn2CC [Example 9-164],0.025
11,CCn1ncc2cc(COC(=O)Nc3sc(-c4ccc(C)cc4OC)nc3C)ccc21 [Example 9-137],0.00625
12,CCc1nc(-c2ccc(C)cc2C)sc1NC(=O)OCc1ccc2nn(CC)cc2c1 [Example 9-371],1
13,CCn1nc(-c2ccc(F)cc2OC)cc1NC(=O)OCc1ccc2c(c1)nc1n2CCOC1 [Example 9-246],0.1
14,COCCn1cnc2cc(NC(=O)OCc3cc(-c4ccc(Cl)cc4OC)nn3C)ccc21 [Example 13-94],1
15,Cc1cc(Cl)ccc1-c1nc(C)c(COC(=O)Nc2ccc3c(c2)nc2n3CCCC2)s1 [Example 13-35],0.025
16,COc1cc(C)ccc1-c1cc(NC(=O)OCc2ccc3nn(C)cc3c2)n(C)n1 [Example 9-293],0.1
17,CCn1c(C)nc2cc(NC(=O)OCc3sc(-c4ccc(C)cc4C)nc3C)ccc21 [Example 13-20],1
18,O=C(N/N=C/c1ccc(OC(F)F)c(O)c1)c1cc(-c2ccc(Cl)cc2Cl)ns1 [Example 27-2],10
19,CCc1nc(-c2ccc(Cl)cc2C)sc1NC(=O)OCc1ccc2c(c1)nc1n2CCCC1 [Example 9-356],0.1
20,COc1cc(Cl)ccc1-c1nc(C)c(C(=O)N/N=C/c2cc(C)c(O)c(C)c2)s1 [Example 23-84],0.1
21,"COc1cc(Cl)ccc1-c1cc(C(=O)N/N=C/c2cc(C)c(O)c(C)c2)n(C)c1 [Example 23-169, 4-(4-Chloro-2-methoxyphenyl)-1-methyl-1H-pyrrole-2-carboxylic acid (4-hydroxy-3,5-dimethylbenzylidene)hydrazide]",10
22,COc1ccccc1-c1nc(C)c(NC(=O)OCc2ccc3c(c2)nc(C)n3C)s1 [Example 9-74],1
23,"COc1cc(Cl)ccc1-c1cc(NC(=O)OCc2ccc3c(c2)ncn3C)n(C)c1 [Example 10-2, [4-(4-Chloro-2-methoxyphenyl)-1-methyl-1H-pyrrol-2-yl]carbamic acid 1-methyl-1H-benzimidazol-5-ylmethyl ester]",1
24,Cc1ccc(-c2nc(C)c(COC(=O)Nc3ccc4c(c3)ncn4C)s2)c(C)c1 [Example 13-8],0.025

# Source: US9200008B2 (ASKA PHARMACEUTICAL CO., LTD., priority 2010, dated 2015)
